{
  "source": "paper PMC3938192",
  "about": "(ACS chemical biology, 2013)",
  "assay_type_in_all_cases": "cell-based",
  "key": {"Pkd1-WT": {"molecular_target": "T1, Pkd1-WT (Mus musculus, UniProt Q62101)", "T1 sequence (Q62101 1-918)": "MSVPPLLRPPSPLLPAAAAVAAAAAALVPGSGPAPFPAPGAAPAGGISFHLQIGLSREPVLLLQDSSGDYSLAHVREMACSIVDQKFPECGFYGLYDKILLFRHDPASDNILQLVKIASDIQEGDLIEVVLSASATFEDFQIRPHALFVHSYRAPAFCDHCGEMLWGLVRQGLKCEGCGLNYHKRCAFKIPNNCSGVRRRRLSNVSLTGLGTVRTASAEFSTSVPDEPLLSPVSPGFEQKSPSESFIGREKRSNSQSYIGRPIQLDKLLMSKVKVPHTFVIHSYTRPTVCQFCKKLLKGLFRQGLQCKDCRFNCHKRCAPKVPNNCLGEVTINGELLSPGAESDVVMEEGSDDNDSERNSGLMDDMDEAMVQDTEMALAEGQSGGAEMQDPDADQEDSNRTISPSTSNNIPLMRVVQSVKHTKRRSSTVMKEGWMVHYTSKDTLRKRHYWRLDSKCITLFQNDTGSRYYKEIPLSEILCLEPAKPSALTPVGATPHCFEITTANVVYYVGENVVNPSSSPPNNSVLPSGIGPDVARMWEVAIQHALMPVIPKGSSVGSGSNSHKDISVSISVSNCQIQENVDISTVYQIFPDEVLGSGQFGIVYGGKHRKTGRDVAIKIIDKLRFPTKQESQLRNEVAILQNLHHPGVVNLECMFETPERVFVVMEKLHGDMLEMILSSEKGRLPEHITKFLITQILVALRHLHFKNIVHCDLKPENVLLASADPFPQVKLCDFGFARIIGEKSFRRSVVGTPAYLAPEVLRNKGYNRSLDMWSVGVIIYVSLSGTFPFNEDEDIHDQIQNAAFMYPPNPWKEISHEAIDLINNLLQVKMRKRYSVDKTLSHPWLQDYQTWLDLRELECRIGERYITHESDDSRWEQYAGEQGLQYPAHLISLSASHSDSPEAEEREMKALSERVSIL", "assay": "Pkd1-WT autophosphorylation in transfected HEK 293T cells", "conditions": "1 µM"}, "Venus-Pkd1-WT": {"molecular_target": "T2, Venus-Pkd1-WT (Mus musculus, UniProt Q62101)", "T2 sequence (Q62101 1-918)": "T1 sequence (Q62101 1-918)", "assay": "Puncta formation of Venus-Pkd1-WT in neurons", "conditions": "1 µM, one hour of inhibitor treatment"}, "Venus-Pkd1-AS2": {"molecular_target": "T3, Venus-Pkd1-AS2 (Mus musculus, UniProt Q62101, M665A)", "T3 sequence (Q62101 1-918 M665A)": "T1 sequence (Q62101 1-918) with M665A", "assay": "Puncta formation of Venus-Pkd1-AS2 in neurons", "conditions": "1 µM, one hour of inhibitor treatment"}, "Pkd1-AS2 (M665A)": {"molecular_target": "T4, Pkd1-AS2 (M665A) (Mus musculus, UniProt Q62101, M665A)", "T4 sequence (Q62101 1-918 M665A)": "T1 sequence (Q62101 1-918) with M665A", "assay": "Pkd1-AS2 autophosphorylation in transfected HEK 293T cells", "conditions": "1 µM"}},
  "note": "Numbering of substitutions follows the chain as printed.",
  "data": [
    {"smiles": "CC(C)(C)n1nc(-c2cccc3ccccc23)c2c(N)ncnc21", "note": "[1NA-PP1]", "values": [
      {"measurement": "effect on autophosphorylation by Pkd1-WT", "setting": "Pkd1-WT", "value": "but not the wild type kinase"},
      {"measurement": "puncta formation, Venus-Pkd1-WT neurons", "setting": "Venus-Pkd1-WT", "value": "unaffected"},
      {"measurement": "puncta formation, Venus-Pkd1-AS2 neurons", "setting": "Venus-Pkd1-AS2", "value": "forming discrete puncta"},
      {"measurement": "effect on autophosphorylation by Pkd1-AS2", "setting": "Pkd1-AS2 (M665A)", "value": "completely abrogates autophosphorylation"}
    ]}
  ]
}
